Data: ChEMBL document CHEMBL5360540, “Antitumor effect of 3-(quinolin-2-ylmethylene)-4,6-dimethyl-5-hydroxy-7-azaoxindole down-regulating the Gas6-Axl axis” (Eur J Med Chem, 2023)

Key:
[1] = test system: PANC-1; assay: Cytotoxicity against human PANC-1 cells assessed as inhibition of cell growth at 30 uM incubated for 48 hrs by MTT assay relative to control; assay type: functional
[2] = test system: MCF7; assay: Cytotoxicity against human MCF7 cells assessed as inhibition of cell growth at 30 uM incubated for 48 hrs by MTT assay relative to control; assay type: functional
[3] = test system: MDA-MB-231; assay: Cytotoxicity against human MDA-MB-231 cells assessed as inhibition of cell growth incubated for 48 hrs by MTT assay; assay type: functional, cell-based; settings: MDA-MB-231, 48 h
[4] = test system: HT-29; assay: Cytotoxicity against human HT-29 cells assessed as inhibition of cell growth incubated for 48 hrs by MTT assay; assay type: functional, cell-based; settings: HT-29, 48 h
[5] = test system: A549; assay: Cytotoxicity against human A549 cells assessed as inhibition of cell growth incubated for 48 hrs by MTT assay; assay type: functional, cell-based; settings: A549, 48 h
[6] = Cytotoxicity against HEK293 cells assessed as inhibition of cell growth incubated for 48 hrs by MTT assay; assay type: toxicity, cell-based; settings: human
[7] = test system: MCF7; assay: Cytotoxicity against human MCF7 cells assessed as inhibition of cell growth incubated for 48 hrs by MTT assay; assay type: functional, cell-based; settings: MCF7, 48 h
[8] = test system: DU-145; assay: Cytotoxicity against human DU-145 cells assessed as inhibition of cell growth incubated for 48 hrs by MTT assay; assay type: functional, cell-based; settings: DU-145, 48 h
[9] = Cytotoxicity against CHO-K1 cells assessed as inhibition of cell growth incubated for 48 hrs by MTT assay; assay type: toxicity, cell-based, Cricetulus griseus; settings: Chinese hamster
[10] = test system: U-937; assay: Cytotoxicity against human U-937 cells assessed as inhibition of cell growth incubated for 48 hrs by MTT assay; assay type: functional, cell-based; settings: U-937, 48 h
[11] = test system: PANC-1; assay: Cytotoxicity against human PANC-1 cells assessed as inhibition of cell growth incubated for 48 hrs by MTT assay; assay type: functional, cell-based; settings: PANC-1, 48 h
[12] = Safety index, ratio of IC50 for CHO-K1 cells to IC50 for human PANC-1 cells; assay type: toxicity; settings: Chinese hamster (CHO-K1), CHO-K1 cells versus PANC-1 cells, read-out: Ratio IC50
[13] = Safety index, ratio of IC50 for HEK293 cells to IC50 for human A549 cells; assay type: toxicity; settings: HEK293 cells versus A549 cells, read-out: Ratio IC50
[14] = Safety index, ratio of IC50 for HEK293 cells to IC50 for human MDA-MB-231 cells; assay type: toxicity; settings: HEK293 cells versus MDA-MB-231 cells, read-out: Ratio IC50
[15] = Safety index, ratio of IC50 for CHO-K1 cells to IC50 for human DU-145 cells; assay type: toxicity; settings: Chinese hamster (CHO-K1), CHO-K1 cells versus DU-145 cells, read-out: Ratio IC50
[16] = Safety index, ratio of IC50 for CHO-K1 cells to IC50 for human HT-29 cells; assay type: toxicity; settings: Chinese hamster (CHO-K1), CHO-K1 cells versus HT-29 cells, read-out: Ratio IC50
[17] = Safety index, ratio of IC50 for HEK293 cells to IC50 for human DU-145 cells; assay type: toxicity; settings: HEK293 cells versus DU-145 cells, read-out: Ratio IC50
[18] = Safety index, ratio of IC50 for CHO-K1 cells to IC50 for human A549 cells; assay type: toxicity; settings: Chinese hamster (CHO-K1), CHO-K1 cells versus A549 cells, read-out: Ratio IC50
[19] = Safety index, ratio of IC50 for CHO-K1 cells to IC50 for human MCF7 cells; assay type: toxicity; settings: Chinese hamster (CHO-K1), CHO-K1 cells versus MCF7 cells, read-out: Ratio IC50
[20] = Safety index, ratio of IC50 for CHO-K1 cells to IC50 for human MDA-MB-231 cells; assay type: toxicity; settings: Chinese hamster (CHO-K1), CHO-K1 cells versus MDA-MB-231 cells, read-out: Ratio IC50
[21] = Safety index, ratio of IC50 for HEK293 cells to IC50 for human MCF7 cells; assay type: toxicity; settings: HEK293 cells versus MCF7 cells, read-out: Ratio IC50
[22] = Safety index, ratio of IC50 for HEK293 cells to IC50 for human U-937 cells; assay type: toxicity; settings: HEK293 cells versus U-937 cells, read-out: Ratio IC50
[23] = Safety index, ratio of IC50 for HEK293 cells to IC50 for human PANC-1 cells; assay type: toxicity; settings: HEK293 cells versus PANC-1 cells, read-out: Ratio IC50
[24] = Safety index, ratio of IC50 for CHO-K1 cells to IC50 for human U-937 cells; assay type: toxicity; settings: Chinese hamster (CHO-K1), CHO-K1 cells versus U-937 cells, read-out: Ratio IC50
[25] = Safety index, ratio of IC50 for HEK293 cells to IC50 for human HT-29 cells; assay type: toxicity; settings: HEK293 cells versus HT-29 cells, read-out: Ratio IC50

In the case of Cc1nc2c(c(C)c1O)/C(=C/c1cnc[nH]1)C(=O)N2, the inhibition at 30 µM [1] is reported as 4.5% and the inhibition at 30 µM [2] is reported as 4.1%.
Cc1nc2c(c(C)c1O)/C(=C/c1ncc[nH]1)C(=O)N2 gave an inhibition at 30 µM [1] of 7.2% and an inhibition at 30 µM [2] of 2.6%.
With Cc1nc2c(c(C)c1O)/C(=C/c1ccc(Cl)cc1)C(=O)N2 the inhibition at 30 µM [1] was 45% and the inhibition at 30 µM [2] was 51.7%.
Work on Cc1nc2c(c(C)c1O)/C(=C/c1ccc([N+](=O)[O-])cc1)C(=O)N2 yielded an inhibition at 30 µM [1] of 32.6% and an inhibition at 30 µM [2] of 16.3%.
Cc1nc2c(c(C)c1O)/C(=C/c1ccc3ccccc3c1)C(=O)N2 showed an inhibition at 30 µM [1] of 29% and an inhibition at 30 µM [2] of 30.5%.
With COc1ccc(Br)cc1/C=C1\C(=O)Nc2nc(C)c(O)c(C)c21 the IC50 [3] was 10.5 µM, the IC50 [4] was 25.1 µM and the IC50 [5] was 10.1 µM. For the same compound, the IC50 at 48 h [6] was 19.5 µM, the IC50 [7] was 11 µM and the inhibition at 30 µM [1] was 71.8%. The IC50 [8] was 4.6 µM, the IC50 at 48 h [9] was 30.1 µM and the IC50 [10] was 12.6 µM. The IC50 [11] was 6.4 µM and the inhibition at 30 µM [2] was 74.7%.
Compound Cc1ccc(/C=C2\C(=O)Nc3nc(C)c(O)c(C)c32)cc1 has an inhibition at 30 µM [1] of 29.2% and an inhibition at 30 µM [2] of 32.3%.
Cc1nc2c(c(C)c1O)/C(=C/c1ccc(F)cc1)C(=O)N2 showed an inhibition at 30 µM [1] of 51.9% and an inhibition at 30 µM [2] of 48.3%.
Cc1nc2c(c(C)c1O)/C(=C/c1ccncc1)C(=O)N2 showed an IC50 [3] of over 90 µM, an IC50 [4] of 30.1 µM and an IC50 [5] of 30.1 µM. The IC50 at 48 h [6] was over 90 µM, the IC50 [7] was 19.1 µM and the inhibition at 30 µM [1] was 65.5%. For the same compound, the IC50 [8] was 30.8 µM, the IC50 at 48 h [9] was 57 µM and the IC50 [10] was 34.5 µM. For the same compound, the IC50 [11] was 19.1 µM and the inhibition at 30 µM [2] was 63.2%.
Compound COc1cc(/C=C2\C(=O)Nc3nc(C)c(O)c(C)c32)cc(OC)c1OC has an inhibition at 30 µM [1] of 40.7% and an inhibition at 30 µM [2] of 41.2%.
Cc1nc2c(c(C)c1O)/C(=C/c1ccoc1)C(=O)N2 gave an IC50 [3] of over 90 µM, an IC50 [4] of over 90 µM and an IC50 [5] of over 90 µM. For the same compound, the IC50 at 48 h [6] was over 90 µM, the IC50 [7] was 22.9 µM and the inhibition at 30 µM [1] was 26.2%. It also gave an IC50 [8] of 22.9 µM, an IC50 at 48 h [9] of over 90 µM and an IC50 [10] of 31.5 µM. For the same compound, the IC50 [11] was over 100 µM and the inhibition at 30 µM [2] was 66.3%.
Compound CCCCC/C=C1\C(=O)Nc2nc(C)c(O)c(C)c21 has an IC50 [3] of 12.6 µM, an IC50 [4] of 12.9 µM and an IC50 [5] of 7.6 µM. For the same compound, the IC50 at 48 h [6] was 6.1 µM, the IC50 [7] was 13.9 µM and the inhibition at 30 µM [1] was 77.5%. The IC50 [8] was 11 µM, the IC50 at 48 h [9] was 20.9 µM and the IC50 [10] was 11.5 µM. It also gave an IC50 [11] of 8.1 µM and an inhibition at 30 µM [2] of 76.9%.
With Cc1nc2c(c(C)c1O)/C(=C/c1ccc(N(C)C)cc1)C(=O)N2 the IC50 [3] was 12.1 µM, the selectivity ratio [12] was over 6.5 and the IC50 [4] was 36.3 µM. The selectivity ratio [13] was over 6.8, the selectivity ratio [14] was over 7.4 and the IC50 [5] was 13.2 µM. The IC50 at 48 h [6] was over 90 µM, the selectivity ratio [15] was over 81.8 and the selectivity ratio [16] was over 2.5. For the same compound, the selectivity ratio [17] was over 81.8, the IC50 [7] was 13.2 µM and the inhibition at 30 µM [1] was 66.4%. It also gave a selectivity ratio [18] of over 6.8, a selectivity ratio [19] of over 6.8 and an IC50 [8] of 1.1 µM. The IC50 at 48 h [9] was over 90 µM, the selectivity ratio [20] was over 7.4 and the selectivity ratio [21] was over 6.8. The selectivity ratio [22] was over 1, the IC50 [10] was over 90 µM and the IC50 [11] was 13.8 µM. For the same compound, the selectivity ratio [23] was over 6.5, the selectivity ratio [24] was over 1 and the selectivity ratio [25] was over 2.5. The inhibition at 30 µM [2] was 62.5%.
Work on COc1cc(/C=C/C=C2\C(=O)Nc3nc(C)c(O)c(C)c32)ccc1O yielded an inhibition at 30 µM [1] of 24.5% and an inhibition at 30 µM [2] of 6.9%.
With Cc1nc2c(c(C)c1O)/C(=C/c1ccccc1O)C(=O)N2 the inhibition at 30 µM [1] was 42.1% and the inhibition at 30 µM [2] was 29.2%.
With COc1ccccc1/C=C1\C(=O)Nc2nc(C)c(O)c(C)c21 the inhibition at 30 µM [1] was 10.2% and the inhibition at 30 µM [2] was 30.7%.
Cc1ccsc1/C=C1\C(=O)Nc2nc(C)c(O)c(C)c21 gave an inhibition at 30 µM [1] of 47.3% and an inhibition at 30 µM [2] of 59%.
